{
  "source": "paper PMC4492579",
  "about": "“Potent and Selective Triazole-Based Inhibitors of the Hypoxia-Inducible Factor Prolyl-Hydroxylases with Activity in the Murine Brain” (PLoS ONE, 2015)",
  "origin": "cited, not measured here",
  "biological_target": "T1, JMJD2A (KDM4A) (Homo sapiens, UniProt O75164)",
  "T1 sequence (O75164 1-1064)": "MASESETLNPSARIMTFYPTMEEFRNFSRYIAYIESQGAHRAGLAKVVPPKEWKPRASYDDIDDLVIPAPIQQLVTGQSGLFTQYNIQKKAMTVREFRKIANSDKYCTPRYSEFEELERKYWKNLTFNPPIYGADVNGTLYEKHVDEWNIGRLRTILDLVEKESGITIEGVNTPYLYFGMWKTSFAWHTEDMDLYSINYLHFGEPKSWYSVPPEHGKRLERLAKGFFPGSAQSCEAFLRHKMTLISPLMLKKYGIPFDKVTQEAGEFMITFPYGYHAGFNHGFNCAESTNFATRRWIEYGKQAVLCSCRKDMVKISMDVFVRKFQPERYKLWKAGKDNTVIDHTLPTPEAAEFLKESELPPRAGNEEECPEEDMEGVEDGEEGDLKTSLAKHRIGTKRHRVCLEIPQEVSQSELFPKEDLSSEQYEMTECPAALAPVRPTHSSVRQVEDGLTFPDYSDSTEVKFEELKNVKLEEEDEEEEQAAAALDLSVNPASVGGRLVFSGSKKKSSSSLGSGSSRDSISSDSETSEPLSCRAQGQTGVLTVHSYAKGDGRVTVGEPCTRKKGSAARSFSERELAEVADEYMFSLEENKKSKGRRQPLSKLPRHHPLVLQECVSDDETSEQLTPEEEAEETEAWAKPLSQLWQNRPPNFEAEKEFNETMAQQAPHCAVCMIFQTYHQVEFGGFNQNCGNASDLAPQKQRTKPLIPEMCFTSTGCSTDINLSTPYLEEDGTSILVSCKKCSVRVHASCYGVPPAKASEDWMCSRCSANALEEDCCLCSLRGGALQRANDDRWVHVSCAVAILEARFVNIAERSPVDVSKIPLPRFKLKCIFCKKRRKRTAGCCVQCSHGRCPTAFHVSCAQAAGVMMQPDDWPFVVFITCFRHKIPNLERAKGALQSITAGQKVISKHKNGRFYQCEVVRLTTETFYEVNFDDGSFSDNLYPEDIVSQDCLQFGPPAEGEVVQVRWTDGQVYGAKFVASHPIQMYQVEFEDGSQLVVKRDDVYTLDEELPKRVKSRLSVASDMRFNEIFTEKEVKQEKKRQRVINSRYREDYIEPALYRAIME",
  "set-up": "method as in PMID 26682036",
  "settings": "cited from earlier work",
  "data": [
    {"smiles": "O=C(O)CNC(=O)c1c(O)c2ccccc2n(Cc2ccccc2)c1=O", "note": "[IOX2]", "values": [
      {"measurement": "IC50", "result": 100, "unit": "µM"}
    ]}
  ]
}
